A word on the mass density: it is the mass of a sample divided by its volume.

For the data set the following is noted: 101.33 kPa, Liquid, Vibrating tube method.

± gives the expanded uncertainty stated by the source.

As for `CCCC[n+]1ccccc1.O=S(=O)([N-]S(=O)(=O)C(F)(F)F)C(F)(F)F` [1-butylpyridinium bis[(trifluoromethyl)sulfonyl]imide], the mass density by setting is: (303.15 K) 1449.8 ± 2.1 kg/m3; (313.15 K) 1440.3 ± 2.1 kg/m3; (323.15 K) 1431.1 ± 2.1 kg/m3; (333.15 K) 1421.9 ± 2.1 kg/m3.

For `CCCC[n+]1ccccc1.N#C[N-]C#N` [1-butylpyridinium dicyanamide], the mass density amounted to 1074.8 ± 2 kg/m3 (303.15 K), 1069.7 ± 2 kg/m3 (313.15 K), 1064.4 ± 2 kg/m3 (323.15 K) and 1059.5 ± 2 kg/m3 (333.15 K).

These data come from the NIST ThermoML archive (doi:10.1016/j.jct.2018.08.038).
